Assay results taken from US4302448A, “Secretin preparations with intensified and protracted action, process for their manufacture, their use as well as dihydroxybenzoyl-L-tyrosine” (Hoechst Aktiengesellschaft, priority 1979, dated 1981).
Where a SMILES comes first, the peptide text is derived from it. Side-chain parts run from the residue outwards. The star is where a group is joined. Cbz = O=C(OCc1ccccc1)*

Tested on: Pancreatic juice secretion of the rat
Assay: Pancreatic juice secretion of the rat after subcutaneous administration of secretin with depot bodies
Format: in vivo
Conditions: for Δ% vs. control (percentage by which the pancreatic secretion is above the basal secretion after 5 hours) / Rel. Intensity of effect over 5 hours (total pancreatic juice secretion over 5 hours as compared with control): rat, subcutaneous, 5 CU/kg secretin + 10 mg depot body/animal; for Δ% vs. control (percentage by which the pancreatic secretion is above the basal secretion after 5 hours): control=100%, measure of depot effect; for Rel. Intensity of effect over 5 hours (total pancreatic juice secretion over 5 hours as compared with control): control (0.9% of NaCl)=1
Description: Secretin preparations for subcutaneous application which contained the depot bodies specified in the following Table were tested in animal experiments. In the experimental procedure chosen, 5 to 8 male rats weighing 300 to 500 g each are administered subcutaneously 5 CU/kg of secretin (CU means clinical unit) and 10 mg of the depot body to be tested each in aqueous solution or suspension.
The animals remain without food for 18 hours prior to the test, but they are given water ad libitum. Under urethane anaesthesia (5 ml/kg i.m. of 25% urethane) the abdomen is opened by median section after tracheotomy, and the pylorus is ligated. The ductus choledochus is tied off in its proximal part near the porta hepatis, and the bile is led into the duodenum via a polyethylene tube of a diameter of […]. A cannula or catheter is inserted into the distal part of the bile duct, into which the numerous pancreatic ducts open, immediately before it opens into the duodenum, and the volume of the secretion running off is measured in 60 minute intervals. Following a preliminary run of 60 minutes the preparations are administered.
L means the compound known from literature and characterized by the melting point, optionally UV, IR or NMR. A to C relate to the preparation according to Example 1, process A to C. These compounds were characterized by ultimate analysis. The third column indicates the percentage by which the pancreatic secretion is above the basal secretion after 5 hours (calculated on the control=100%). This value is a measure for the depot effect of the depot body tested. Column 4 indicates the intensification of the secretin effect, with the total pancreatic juice secretion having been given over 5 hours as compared with the control (0.9% of NaCl)=1.

Row | Compound | Δ% vs. control (percentage by which the pancreatic secretion is above the basal secretion after 5 hours) | Rel. Intensity of effect over 5 hours (total pancreatic juice secretion over 5 hours as compared with control) | protracted and intensified action of secretin (in words) (subcutaneous secretin preparations with depot body)
1 | Bis-(3,5-dihydroxybenzoyl-L-tyrosine)-diaminoethane | 58% | 7.0 | –
2 | O=S(=O)(c1ccc(O)cc1)c1ccc(O)cc1 [4,4'-Dihydroxy-diphenyl sulfone] | 74% | 6.2 | –
3 | Bis-(benzyloxycarbonyl-L-tyrosine)-diaminoethane | 44% | 5.5 | –
4 | COC(=O)[C@H](CCCCNC(=O)[C@H](Cc1ccc(O)cc1)NC(=O)OCc1ccccc1)NC(=O)[C@H](Cc1ccc(O)cc1)NC(=O)OCc1ccccc1 [Nα,Nε-Bis-(benzyloxycarbonyl-L-tyrosyl)-L-lysine-methyl ester] (Cbz-Tyr-Lys([Tyr-Cbz])-OMe) | 93% | 8.2 | –
5 | O=C(NCCN(CCN(CCNC(=O)c1cc(O)cc(O)c1)C(=O)c1cc(O)cc(O)c1)C(=O)c1cc(O)cc(O)c1)c1cc(O)cc(O)c1 [Tetra-(3,5-dihydroxybenzoyl)-triethylene-tetramine] | 101% | 9.7 | –
6 | O=C(N[C@@H](Cc1ccc(O)cc1)C(=O)N(CCO)CCO)c1ccc(O)cc1O [2,4-Dihydroxybenzoyl-L-tyrosine-diethanolamide] | 47% | 8.7 | –
7 | O=C(c1ccccc1)c1ccc(O)cc1 [4-Hydroxybenzophenone] | 70% | 6.7 | –
8 | Bis-(2-hydroxybenzoyl)-diaminoethane | 72% | 5.9 | –
9 | Oc1ccccc1 [Phenol] | 51% | 8 | clearly evident
10 | OCc1ccc(O)cc1 [4-Hydroxy-benzyl alcohol] | 12% | 1.3 | –
11 | Bis-(2-carboxybenzoyl-L-tyrosine)-diaminoethane | 48% | 6.3 | –
12 | CC(=O)c1cccc(O)c1 [3-Hydroxy-acetophene] | 54% | 9.0 | –
13 | O=C(c1cc(Cl)ccc1O)N(CCO)CCO [2-Hydroxy-5-chloro-benzoic acid-diethanolamide] | 77% | 7.3 | –
14 | O=C(c1ccccc1)c1ccccc1O [2-Hydroxy-benzophenone] | 74% | 7.2 | –
15 | Oc1cccc2cccnc12 [8-Hydroxyquinoline] | 37% | 4.7 | –
16 | CC(=O)c1ccc(O)cc1O [2,4-Dihydroxy-acetophenone] | 70% | 6.1 | –
17 | O=C(O)c1cc(O)c(O)c(O)c1 [3,4,5-Trihydroxybenzoic acid] | 28% | 5.0 | –
18 | O=C(NCCN(CCN(CCNC(=O)c1c(O)cccc1O)C(=O)c1c(O)cccc1O)C(=O)c1c(O)cccc1O)c1c(O)cccc1O [Tetra-(2,6-dihydroxybenzoyl)-triethylene-tetramine] | 78% | 8.1 | –
19 | Oc1cccc(O)c1 [Resorcinol] | 55% | 6.1 | –
20 | O=C(c1ccc(O)cc1O)c1ccc(O)cc1O [2,2'-4,4'-Tetrahydroxybenzophenone] | 58% | 4.8 | –
21 | O=C(O)c1ccc(O)cc1 [4-Hydroxybenzoic acid] | 38% | 3.8 | –
22 | O=C(NCc1ccccc1)c1ccc(O)cc1O [2,4-Dihydroxybenzoic acid-benzylamide] | 64% | 6.8 | –
23 | 3,5-Dihydroxyphenylcarbonyl-ethylphenyl-3,5-dimethyl phosphate | 62% | 3.4 | –
24 | O=C(N[C@@H](Cc1ccc(O)cc1)C(=O)NCCN(CCN(CCNC(=O)[C@H](Cc1ccc(O)cc1)NC(=O)c1cc(O)cc(O)c1)C(=O)[C@H](Cc1ccc(O)cc1)NC(=O)c1cc(O)cc(O)c1)C(=O)[C@H](Cc1ccc(O)cc1)NC(=O)c1cc(O)cc(O)c1)c1cc(O)cc(O)c1 [Tetra-(3,5-dihydroxybenzoyl-L-tyrosyl)-triethylene-tetramine] | 98% | 9.5 | –
25 | O=C(N[C@@H](Cc1ccc(O)cc1)C(=O)NCCCC[C@H](NC(=O)[C@H](Cc1ccc(O)cc1)NC(=O)OCc1ccccc1)C(=O)O)OCc1ccccc1 [Nα,Nε-Bis-(benzyloxycarbonyl-L-tyrosyl)-L-lysine] (Cbz-Tyr-Lys([Tyr-Cbz])-OH) | 48% | 7.0 | –
26 | Bis-(3,5-dihydroxybenzoyl)-1,4-diaminobutane | 85% | 7.4 | –
27 | O=C(N[C@@H](Cc1ccc(O)cc1)C(=O)NCCCC[C@H](NC(=O)[C@H](Cc1ccc(O)cc1)NC(=O)c1cc(O)cc(O)c1)C(=O)N(CCO)CCO)c1cc(O)cc(O)c1 [Nα,Nε-Bis(3,5-dihydroxybenzoyl-L-tyrosyl)-L-lysine-diethanol-amide] | 86% | 8.8 | –
28 | O=C(c1ccccc1)c1ccc(O)c(O)c1O [2,3,4-Trihydroxy-benzophenone] | 109% | 9.1 | –
